Data on ten compounds can be found in patent US9403813B2, “Azetidine amide derivatives as orexin receptor antagonists” (ACTELION PHARMACEUTICALS LTD, priority 2013, dated 2016).

Molecules are shown by their SMILES.

As usually defined, the IC50 is the concentration needed to halve the response being measured.

One assay deals with human orexin-1 receptor (Homo sapiens (Human), UniProt O43613). The assay is described as follows: Intracellular calcium measurements (FLIPR), antagonism of orexin-A response. The conditions noted are these: CHO cells expressing human orexin-1 receptor, 3 nM orexin-A, geometric mean if determined several times, read-out: IC50 OX1. Type of assay: cell-based. How it is done: (§1) Antagonistic activities on both orexin receptors have been measured for each example compound using the following procedure:
(§2) In Vitro Assay: Intracellular Calcium Measurements:
(§3) Chinese hamster ovary (CHO) cells expressing the human orexin-1 receptor and the human orexin-2 receptor, respectively, are grown in culture medium (Ham F-12 with L-Glutamine) containing 300 μg/mL G418, 100 U/mL penicillin, 100 μg/mL streptomycin and 10% heat inactivated fetal calf serum (FCS). The cells are seeded at 20,000 cells/well into 384-well black clear bottom sterile plates (Greiner). The seeded plates are incubated overnight at 37° C. in 5% CO2. Human orexin-A as an agonist is prepared as 1 mM stock solution in MeOH:water (1:1), diluted in HBSS containing 0.1% bovine serum albumin (BSA), NaHCO3: 0.375 g/L and 20 mM HEPES for use in the assay at a final concentration of 3 nM.
(§4) Antagonists are prepared as 10 mM stock solution in DMSO, then diluted in 384-well plates using DMSO followed by a transfer of the dilutions into in HBSS containing 0.1% bovine serum albumin (BSA), NaHCO3: 0.375 g/L and 20 mM HEPES. On the day of the assay, 50 μL of staining buffer (HBSS containing 1% FCS, 20 mM HEPES, NaHCO3: 0.375 g/L, 5 mM probenecid (Sigma) and 3 μM of the fluorescent calcium indicator fluo-4 AM (1 mM stock solution in DMSO, containing 10% pluronic) is added to each well. The 384-well cell-plates are incubated for 50 min at 37° C. in 5% CO2 followed by equilibration at rt for 30 min before measurement.
(§5) Within the Fluorescent Imaging Plate Reader (FLIPR Tetra, Molecular Devices), antagonists are added to the plate in a volume of 10 μL/well, incubated for 120 min and finally 10 μL/well of agonist is added. Fluorescence is measured for each well at 1 second intervals, and the height of each fluorescence peak is compared to the height of the fluorescence peak induced by 3 nM orexin-A with vehicle in place of antagonist. The IC50 value (the concentration of compound needed to inhibit 50% of the agonistic response) is determined and may be normalized using the obtained IC50 value of an on-plate reference compound. Optimized conditions were achieved by adjustment of pipetting speed and cell splitting regime. The calculated IC50 values may fluctuate depending on the daily cellular assay performance. Fluctuations of this kind are known to those skilled in the art. In the case where IC50 values have been determined several times for the same compound, the geometric mean has been given.
In general terms: Calcium flux is commonly read through the fluorescence of an indicator in the cells.

For another assay, the target named is human orexin-2 receptor (Homo sapiens (Human), UniProt O43614). The assay is described as above. Type of assay: cell-based. To be noted: CHO cells expressing human orexin-2 receptor, 3 nM orexin-A, geometric mean if determined several times, read-out: IC50 OX2. How it is done:
as §1, §2, §3, §4, §5

Chain of human orexin-1 receptor (O43613 whole entry): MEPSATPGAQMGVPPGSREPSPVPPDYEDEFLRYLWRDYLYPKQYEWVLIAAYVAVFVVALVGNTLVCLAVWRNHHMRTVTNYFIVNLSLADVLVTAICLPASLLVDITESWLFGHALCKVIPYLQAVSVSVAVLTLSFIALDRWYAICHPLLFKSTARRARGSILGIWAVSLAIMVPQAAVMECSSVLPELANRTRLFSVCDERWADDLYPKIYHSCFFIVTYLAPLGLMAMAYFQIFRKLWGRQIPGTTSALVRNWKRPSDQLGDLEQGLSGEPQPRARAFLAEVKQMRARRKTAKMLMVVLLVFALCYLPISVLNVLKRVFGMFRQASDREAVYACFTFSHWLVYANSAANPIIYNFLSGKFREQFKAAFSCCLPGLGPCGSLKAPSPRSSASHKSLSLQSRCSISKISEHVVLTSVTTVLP
Chain of human orexin-2 receptor (O43614 whole entry): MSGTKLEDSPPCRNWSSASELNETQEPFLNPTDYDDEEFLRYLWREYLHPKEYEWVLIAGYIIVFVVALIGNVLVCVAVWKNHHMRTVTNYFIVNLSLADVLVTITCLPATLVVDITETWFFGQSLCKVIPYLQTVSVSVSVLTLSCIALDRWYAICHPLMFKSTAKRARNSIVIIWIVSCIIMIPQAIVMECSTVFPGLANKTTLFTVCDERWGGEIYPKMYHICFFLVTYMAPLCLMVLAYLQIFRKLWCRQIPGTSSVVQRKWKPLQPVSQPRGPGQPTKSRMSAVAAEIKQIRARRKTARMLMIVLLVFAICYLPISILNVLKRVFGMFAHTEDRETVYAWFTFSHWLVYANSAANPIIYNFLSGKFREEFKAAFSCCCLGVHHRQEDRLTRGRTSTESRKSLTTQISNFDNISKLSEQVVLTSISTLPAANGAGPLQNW

Take `COc1ccccc1-c1noc([C@@H]2CCN2C(=O)c2cc(C)ccc2-n2nccn2)n1` [Example 4, {(S)-2-[3-(2-Methoxy-phenyl)-[1,2,4]oxadiazol-5-yl]-azetidin-1-yl}-(5-methyl-2-[1,2,3]triazol-2-yl-phenyl)-methanone]: the values for the 50% inhibitory concentration (IC50) at human orexin-1 receptor and at human orexin-2 receptor were 1300 nM and 38 nM, respectively.
Regarding `CCOc1ncccc1-c1noc([C@@H]2CCN2C(=O)c2ccc(C)cc2-n2nccn2)n1` [Example 32, {(S)-2-[3-(2-Ethoxy-pyridin-3-yl)-[1,2,4]oxadiazol-5-yl]-azetidin-1-yl}-(4-methyl-2-[1,2,3]triazol-2-yl-phenyl)-methanone], the IC50 at human orexin-1 receptor worked out at 819 nM; on human orexin-2 receptor, 100 nM.
The like results for `COc1cc(C(=O)N2CC[C@H]2c2nc(-c3cccc(Cl)c3C)no2)c(-n2nccn2)cc1C` [Example 28, {(S)-2-[3-(3-Chloro-2-methyl-phenyl)-[1,2,4]oxadiazol-5-yl]-azetidin-1-yl}-(5-methoxy-4-methyl-2-[1,2,3]triazol-2-yl-phenyl)-methanone] were, in that order, 397 nM and 2 nM.
Take `COc1cc(C(=O)N2CC[C@H]2c2nc(-c3cccc(F)c3C)no2)c(-n2nccn2)cc1C` [Example 29, {(S)-2-[3-(3-Fluoro-2-methyl-phenyl)-[1,2,4]oxadiazol-5-yl]-azetidin-1-yl}-(5-methoxy-4-methyl-2-[1,2,3]triazol-2-yl-phenyl)-methanone]: the figures for the IC50 on human orexin-1 receptor and at human orexin-2 receptor were 671 nM and 4 nM, respectively.
The like results for `COc1cc(C(=O)N2CC[C@H]2c2noc(-c3cccc(Cl)c3OC)n2)c(-n2nccn2)cc1C` [Example 111, {(S)-2-[5-(3-Chloro-2-methoxy-phenyl)-[1,2,4]oxadiazol-3-yl]-azetidin-1-yl}-(5-methoxy-4-methyl-2-[1,2,3]triazol-2-yl-phenyl)-methanone] were, in that order, 82 nM and 0.7 nM.
For the compound `Cc1c(Cl)cccc1-c1noc([C@@H]2CCN2C(=O)c2cc(Cl)ccc2-n2nccn2)n1` [Example 80, {(S)-2-[3-(3-Chloro-2-methyl-phenyl)-[1,2,4]oxadiazol-5-yl]-azetidin-1-yl}-(5-chloro-2-[1,2,3]triazol-2-yl-phenyl)-methanone], the IC50 on human orexin-1 receptor was determined as 756 nM; on human orexin-2 receptor, 49 nM.
Regarding `Cc1ccc(C(=O)N2CC[C@H]2c2nnc(-c3ccccc3OC(F)(F)F)[nH]2)c(-n2nccn2)c1` [Example 127, (4-Methyl-2-[1,2,3]triazol-2-yl-phenyl)-{(S)-2-[5-(2-trifluoromethoxy-phenyl)-4H-[1,2,4]triazol-3-yl]-azetidin-1-yl}-methanone], the 50% inhibitory concentration (IC50) at human orexin-1 receptor turned out to be 866 nM; at human orexin-2 receptor, 11 nM.
The like results for `Cc1onc(-c2ccccc2Cl)c1C(=O)N1CC[C@H]1c1nc(-c2ccccc2OC(F)(F)F)no1` [Example 53, [3-(2-Chloro-phenyl)-5-methyl-isoxazol-4-yl]-{(S)-2-[3-(2-trifluoromethoxy-phenyl)-[1,2,4]oxadiazol-5-yl]-azetidin-1-yl}-methanone] were, in that order, 1230 nM and 1190 nM.
The like results for `Cc1ccc(-n2nccn2)c(C(=O)N2CC[C@H]2c2nc(-c3ccccc3Cl)no2)c1` [Example 14, {(S)-2-[3-(2-Chloro-phenyl)-[1,2,4]oxadiazol-5-yl]-azetidin-1-yl}-(5-methyl-2-[1,2,3]triazol-2-yl-phenyl)-methanone] were, in that order, 1040 nM and 40 nM.
The like results for `Cc1ccc(-n2nccn2)c(C(=O)N2CC[C@H]2c2nc(-c3c(C)cccc3F)no2)c1` [Example 8, {(S)-2-[3-(2-Fluoro-6-methyl-phenyl)-[1,2,4]oxadiazol-5-yl]-azetidin-1-yl}-(5-methyl-2-[1,2,3]triazol-2-yl-phenyl)-methanone] were, in that order, 3430 nM and 115 nM.
